{
  "source": "paper PMC6642140",
  "about": "“Boosting NAD^+ with a small molecule that activates NAMPT” (Nature Communications, 2019)",
  "type_in_all_cases": "biochemical",
  "key": {"[1]": {"molecular_target": "T1, NAMPT (nicotinamide phosphoribosyltransferase) (Homo sapiens, UniProt P43490)", "T1 construct": "recombinant, N-terminal His tag removed with thrombin", "T1 sequence (P43490 whole entry)": "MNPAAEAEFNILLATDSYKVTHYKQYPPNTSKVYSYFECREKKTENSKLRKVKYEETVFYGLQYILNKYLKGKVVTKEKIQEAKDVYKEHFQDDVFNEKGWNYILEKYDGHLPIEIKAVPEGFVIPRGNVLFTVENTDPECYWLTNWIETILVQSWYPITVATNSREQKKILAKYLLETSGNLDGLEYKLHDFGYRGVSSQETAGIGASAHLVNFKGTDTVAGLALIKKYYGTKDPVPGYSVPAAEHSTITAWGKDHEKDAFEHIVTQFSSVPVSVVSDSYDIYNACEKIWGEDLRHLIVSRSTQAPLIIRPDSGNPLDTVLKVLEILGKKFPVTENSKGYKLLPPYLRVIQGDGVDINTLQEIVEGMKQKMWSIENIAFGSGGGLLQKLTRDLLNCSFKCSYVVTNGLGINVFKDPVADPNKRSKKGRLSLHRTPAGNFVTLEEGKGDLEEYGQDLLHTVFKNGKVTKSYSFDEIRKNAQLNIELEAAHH", "assay": "NMN production LC-MS/MS assay with […] NAD+ (feedback inhibition)"}, "[2]": {"molecular_target": "T1, NAMPT (nicotinamide phosphoribosyltransferase)", "assay": "LC-MS/MS of the reversible reaction; suppresses pHisNAMPT in western blot and blunts P3 production"}, "[3]": {"molecular_target": "T1, NAMPT (nicotinamide phosphoribosyltransferase)", "assay": "dose-dependent protein thermal shift and stimulation of NMN production"}, "[4]": {"molecular_target": "T1, NAMPT (nicotinamide phosphoribosyltransferase)", "assay": "NMN production fluorescence assay at […] compound (slight inhibition)"}, "[5]": {"molecular_target": "T1, NAMPT (nicotinamide phosphoribosyltransferase)", "assay": "spin desalting column with LC-MS detection of bound compound; EC50 from NMN production activation assay", "text": "spin desalting column with LC-MS detection of bound compound; EC50 from NMN production activation assay on NAMPT (nicotinamide phosphoribosyltransferase) | When NAMPT and SBI-797812 were mixed and applied to the column, SBI-797812 was detected in the column eluent"}},
  "data": [
    {"smiles": "NC(=O)c1ccc[n+]([C@@H]2O[C@H](COP(=O)([O-])OP(=O)(O)OC[C@H]3O[C@@H](n4cnc5c(N)ncnc54)[C@H](O)[C@@H]3O)[C@@H](O)[C@H]2O)c1", "note": "[NAD^+]", "values": [
      {"measurement": "NMN production LC-MS/MS assay with 250 μM NAD+ (feedback inhibition)", "setting": "[1]", "value": "SBI-797812 relieved NAMPT inhibition mediated by NAD^+ (Fig. 2e)."}
    ]},
    {"smiles": "NC(=O)c1ccc[n+]([C@@H]2O[C@H](COP(=O)([O-])O)[C@@H](O)[C@H]2O)c1", "note": "[NMN]", "values": [
      {"measurement": "LC-MS/MS of the reversible reaction; suppresses pHisNAMPT in western blot and bl", "setting": "[2]", "value": "While the pHisNAMPT band was suppressed by NMN or PP, NAM or PRPP had no effect"}
    ]},
    {"smiles": "CCOC(=O)c1ccc(NC(=O)NCc2ccncc2)cc1", "note": "[SBI-136892]", "values": [
      {"measurement": "dose-dependent protein thermal shift and stimulation of NMN production", "setting": "[3]", "value": "SBI-136892 (Fig. 1b), dose-dependently increased the NAMPT Tm (Supplementary Fig. 1a) and stimulated NAMPT-mediated NMN production"}
    ]},
    {"smiles": "O=C(NCc1ccccn1)Nc1ccc(S(=O)(=O)N2CC3CCC(C2)O3)cc1", "note": "[SBI-796950]", "values": [
      {"measurement": "NMN production fluorescence assay at 2 μM compound (slight inhibition)", "setting": "[4]", "value": "The SBI-797812 isomer with the 2-pyridyl group, SBI-796950 (Fig. 1b), slightly inhibited NMN production (Fig. 1c)."}
    ]},
    {"smiles": "O=C(NCc1ccncc1)Nc1ccc(S(=O)(=O)N2CC3CCC(C2)O3)cc1", "note": "[SBI-797812]", "values": [
      {"measurement": "EC50", "setting": "[5]", "value": "370 ± 60", "unit": "nM"}
    ]}
  ]
}
